Assay results taken from patent US20230086702A1, “SUBSTITUTED 2-AMINO-PYRAZOLYL-[1,2,4]TRIAZOLO[1,5A]PYRIDINE DERIVATIVES AND USE THEREOF” (The Johns Hopkins University, priority 2019, published 2023).

What was measured:
DLK = biological target: T1, DLK (Homo sapiens, UniProt Q12852); test: DLK biochemical assay (TR-FRET, MKK7 phosphorylation)
T1 construct: 10 nM DLK, catalytic domain, Carna Biosiences; purchased Carna Biosciences ('Carna Biosiences' [sic])
T1 sequence (Q12852 125-366 limits assumed): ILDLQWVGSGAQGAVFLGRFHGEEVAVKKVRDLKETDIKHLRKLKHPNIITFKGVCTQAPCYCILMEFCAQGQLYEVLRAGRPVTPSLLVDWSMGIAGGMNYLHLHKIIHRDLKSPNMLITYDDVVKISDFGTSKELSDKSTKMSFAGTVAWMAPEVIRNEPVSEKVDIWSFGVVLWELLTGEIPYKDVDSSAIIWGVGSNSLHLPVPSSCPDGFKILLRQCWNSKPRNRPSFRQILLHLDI
Method in brief: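 TR-FRET read-out (665/Eu ratio) of MKK7 T275/S277 phosphorylation, with inhibition lowering the signal. Final conditions: 10 nM DLK catalytic domain, 15 nM MKK7, 60 μM ATP, 90 min at RT. Detection incubation 16 h at 37° C in 1536-well or 4° C in 384-well format.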

LZK = biological target: T2, LZK (Homo sapiens, UniProt O43283); test: LZK biochemical assay (TR-FRET, MKK7 phosphorylation)
T2 construct: 10 nM LZK, catalytic domain, Carna Biosiences in assay buffer; purchased Carna Biosciences ('Carna Biosiences' [sic])
T2 sequence (O43283 168-409 limits assumed): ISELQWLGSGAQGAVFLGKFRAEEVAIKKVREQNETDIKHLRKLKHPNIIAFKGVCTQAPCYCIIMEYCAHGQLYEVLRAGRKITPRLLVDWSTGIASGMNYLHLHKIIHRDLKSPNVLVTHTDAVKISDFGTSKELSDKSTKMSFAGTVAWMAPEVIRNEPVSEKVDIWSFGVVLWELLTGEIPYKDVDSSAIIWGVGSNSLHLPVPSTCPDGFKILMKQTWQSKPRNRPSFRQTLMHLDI
Method in brief: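 Read-out is HTRF: Eu-labelled anti-phospho-MKK7 (T275/S277) and XL665 anti-His, incubated 16 h at 32 °C, with a drop in signal marking inhibition. Reaction beforehand: 10 nM LZK kinase domain, 15 nM His-MKK7, 15 µM ATP (final) for 90 min at room temperature, pH 7.5.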

How did the IC50 (DLK) turn out when `Nc1nc2c(-c3ccc(=O)n(CC(F)F)c3)cc(-c3cnn(C(c4ccc(C(F)(F)F)nc4)C4CCOCC4)c3)cn2n1` (single isomer, unassigned) [II-158, 5-[2-Amino-6-(1-{tetrahydro-2H-pyran-4-yl[6-(trifluoromethyl)pyridin-3-yl]methyl}-1H-pyrazol-4-yl)[1,2,4]triazolo[1,5-a]pyridin-8-yl]-1-(2,2-difluoroethyl)pyridin-2(1H)-one] was run?
Its IC50 is 0.4 nM.

What about the IC50 (LZK) of the same compound?
The IC50 was 1.2 nM.

How did the IC50 (DLK) turn out when `Nc1nc2cc(-c3cnn(C(c4ccc(C(F)(F)F)nc4)C4CCOCC4)c3)cc(-c3ccc(=O)n(CC(F)F)c3)n2n1` (stereo not drawn) [II-185] was run?
The IC50 was 1.3 nM.

And the IC50 (LZK)?
The IC50 was 2 nM.

For `CC(C)C(c1ccc(C(F)F)nc1)n1cc(-c2cc(-c3ccc(OC(F)F)nc3)n3nc(N)nc3c2)cn1` (single isomer, unassigned) [II-50, 5-[6-(Difluoromethoxy)pyridin-3-yl]-7-(1-{1-[6-(difluoromethyl)pyridin-3-yl]-2-methylpropyl}-1H-pyrazol-4-yl)[1,2,4]triazolo[1,5-a]pyridin-2-amine], which IC50 (DLK) is on record?
The IC50 was 280 nM.

And the IC50 (LZK)?
The IC50 was 270 nM.

What does the source list for `CCC(c1ccc(C(F)(F)F)nc1)n1cc(-c2cc(-c3ccnc(OC(F)F)c3)c3nc(N)nn3c2)cn1` (racemic) [II-25, 8-[2-(Difluoromethoxy)pyridin-4-yl]-6-(1-{1-[6-(trifluoromethyl)pyridin-3-yl]propyl}-1H-pyrazol-4-yl)[1,2,4]triazolo[1,5-a]pyridin-2-amine]?
IC50 (DLK): 130 nM; IC50 (LZK): 82 nM

`Nc1nc2c(-c3ccn(CC(F)F)c(=O)c3)cc(-c3cnn(C(c4ccc(C(F)(F)F)nc4)C4CCOCC4)c3)cn2n1` (single isomer, unassigned) [II-173, 4-[2-Amino-6-(1-{tetrahydro-2H-pyran-4-yl[6-(trifluoromethyl)pyridin-3-yl]methyl}-1H-pyrazol-4-yl)[1,2,4]triazolo[1,5-a]pyridin-8-yl]-1-(2,2-difluoroethyl)pyridin-2(1H)-one] was tested. Which IC50 (DLK) did it give?
Its IC50 is 11 nM.

What about the IC50 (LZK) of the same compound?
The IC50 was 25 nM.

Which results are given for `CC(C)C(c1ccc(C(F)(F)F)nc1)n1cc(-c2cc(-c3ccc(C4CC4)nc3)c3nc(N)nn3c2)cn1` (single isomer, unassigned) [II-45, 8-(6-Cyclopropylpyridin-3-yl)-6-(1-{2-methyl-1-[6-(trifluoromethyl)pyridin-3-yl]propyl}-1H-pyrazol-4-yl)[1,2,4]triazolo[1,5-a]pyridin-2-amine]?
IC50 (DLK): 9.5 nM; IC50 (LZK): 10 nM

How did the IC50 (DLK) turn out when `Nc1nc2c(-c3ccn(CC(F)(F)F)c(=O)c3)cc(-c3cnn(C(c4ccc(C(F)(F)F)nc4)C4CCOCC4)c3)cn2n1` (stereo not drawn) [II-175] was run?
The IC50 was 2.7 nM.

And the IC50 (LZK)?
Its IC50 is 13 nM.

With `Nc1nc2cc(-c3cnn(C(c4ccc(C(F)(F)F)nc4)C4CCOCC4)c3)cc(-c3ccnc(C(F)(F)F)c3)n2n1` (single isomer, unassigned) [II-35, 7-(1-{Tetrahydro-2H-pyran-4-yl[6-(trifluoromethyl)pyridin-3-yl]methyl}-1H-pyrazol-4-yl)-5-[2-(trifluoromethyl)pyridin-4-yl][1,2,4]triazolo[1,5-a]pyridin-2-amine] as the compound, how does the IC50 (DLK) read?
Its IC50 is 63 nM.

And the IC50 (LZK)?
Its IC50 is 44 nM.

Which results are given for `COc1cc([C@H](C(C)C)n2cc(-c3cc(-c4cnn(CC(F)(F)F)c4)n4nc(N)nc4c3)cn2)ccn1` [II-138]?
IC50 (DLK): 1.7 nM; IC50 (LZK): 29 nM

What does the source list for `CCC(c1ccc(C(F)(F)F)nc1)n1cc(-c2cc(-c3ccc(=O)n(C(F)F)c3)n3nc(N)nc3c2)cn1` (stereo not drawn) [II-179]?
IC50 (DLK): 12 nM; IC50 (LZK): 8 nM

Which IC50 (DLK) does the source give for `CN(C)c1cccc(-c2cc(-c3cnn(C(c4ccc(C(F)(F)F)nc4)C4CCOCC4)c3)cn3nc(N)nc23)c1` (single isomer, unassigned) [II-24, 8-[3-(Dimethylamino)phenyl]-6-(1-{tetrahydro-2H-pyran-4-yl[6-(trifluoromethyl)pyridin-3-yl]methyl}-1H-pyrazol-4-yl)[1,2,4]triazolo[1,5-a]pyridin-2-amine] here?
The IC50 was 0.5 nM.

And the IC50 (LZK)?
Its IC50 is 2.3 nM.

Which IC50 (DLK) does the source give for `CC[C@@H](c1ccc(C(F)(F)F)nc1)n1cc(-c2cc(-c3ccc(=O)n(CC(F)(F)F)c3)n3nc(N)nc3c2)cn1` [II-190] here?
The IC50 was 2.9 nM.

What about the IC50 (LZK) of the same compound?
The IC50 was 5.4 nM.

`Nc1nc2c(-c3ccn(CC(F)F)c(=O)c3)cc(-c3cnn(C(c4ccc(C(F)(F)F)nc4)C4CCOCC4)c3)cn2n1` (stereo not drawn) [II-172] was tested. Which IC50 (DLK) did it give?
Its IC50 is 2.2 nM.

And the IC50 (LZK)?
Its IC50 is 11 nM.

Which IC50 (DLK) does the source give for `CC(C)C(c1ccc(C(F)(F)F)nc1)n1cc(-c2cc(-c3cnn(C4CCCC4)c3)n3nc(N)nc3c2)cn1` (stereo not drawn) [II-143] here?
The IC50 was 2.5 nM.

And the IC50 (LZK)?
Its IC50 is 15 nM.

How did the IC50 (DLK) turn out when `CCC(c1ccc(C(F)(F)F)cc1)n1cc(-c2cc(-c3cnn(C)c3)c3nc(N)nn3c2)cn1` (single isomer, unassigned) [II-100, 8-(1-Methyl-1H-pyrazol-4-yl)-6-(1-{1-[4-(trifluoromethyl)phenyl]propyl}-1H-pyrazol-4-yl)[1,2,4]triazolo[1,5-a]pyridin-2-amine] was run?
Its IC50 is 58 nM.

And the IC50 (LZK)?
The IC50 was 500 nM.

How did the IC50 (DLK) turn out when `CCC(c1ccc(OC(F)(F)F)nc1)n1cc(-c2cc(-c3ccc(=O)n(CC(F)(F)F)c3)c3nc(N)nn3c2)cn1` (single isomer, unassigned) [II-165, 5-[2-Amino-6-(1-{1-[6-(trifluoromethoxy)pyridin-3-yl]propyl}-1H-pyrazol-4-yl)[1,2,4]triazolo[1,5-a]pyridin-8-yl]-1-(2,2,2-trifluoroethyl)pyridin-2(1H)-one] was run?
Its IC50 is 26 nM.

What about the IC50 (LZK) of the same compound?
The IC50 was 57 nM.

How did the IC50 (DLK) turn out when `N#CCC(n1cc(-c2cc(-c3cnn(Cc4ccccc4)c3)cc3nc(N)nn23)cn1)C(F)(F)F` (stereo not drawn) [II-123] was run?
The IC50 was 53 nM.

And the IC50 (LZK)?
Its IC50 is 150 nM.

With `CC(C)(O)c1cccc(-c2cc(-c3cnn(C(c4ccc(C(F)(F)F)nc4)C4CCOCC4)c3)cn3nc(N)nc23)c1` (single isomer, unassigned) [II-11, 2-{3-[2-Amino-6-(1-{tetrahydro-2H-pyran-4-yl[6-(trifluoromethyl)pyridin-3-yl]methyl}-1H-pyrazol-4-yl)[1,2,4]triazolo[1,5-a]pyridin-8-yl]phenyl}propan-2-ol] as the compound, how does the IC50 (DLK) read?
Its IC50 is 1.4 nM.

And the IC50 (LZK)?
Its IC50 is 3 nM.

`Nc1nc2cc(-c3cnn(C(c4ccc(C(F)(F)F)nc4)C4CCOCC4)c3)cc(-c3ccc(=O)n(CC(F)(F)F)c3)n2n1` (single isomer, unassigned) [II-193, 5-[2-Amino-7-(1-{tetrahydro-2H-pyran-4-yl[6-(trifluoromethyl)pyridin-3-yl]methyl}-1H-pyrazol-4-yl)[1,2,4]triazolo[1,5-a]pyridin-5-yl]-1-(2,2,2-trifluoroethyl)pyridin-2(1H)-one] was tested. Which IC50 (DLK) did it give?
The IC50 was 15 nM.

What about the IC50 (LZK) of the same compound?
The IC50 was 12 nM.

What does the source list for `CC(C)C(c1ccc(C(F)(F)F)nc1)n1cc(-c2cc(-c3ccc(N4CCCC4)nc3)n3nc(N)nc3c2)cn1` (racemic) [II-79, 7-(1-{2-Methyl-1-[6-(trifluoromethyl)pyridin-3-yl]propyl}-1H-pyrazol-4-yl)-5-[6-(pyrrolidin-1-yl)pyridin-3-yl][1,2,4]triazolo[1,5-a]pyridin-2-amine]?
IC50 (DLK): 46 nM; IC50 (LZK): 27 nM

What does the source list for `Nc1nc2cc(-c3cnn(C(c4ccc(C(F)(F)F)nc4)C4CCOCC4)c3)cc(-c3cnn(CC(F)(F)F)c3)n2n1` (single isomer, unassigned) [II-150, 7-(1-{Tetrahydro-2H-pyran-4-yl[6-(trifluoromethyl)pyridin-3-yl]methyl}-1H-pyrazol-4-yl)-5-[1-(2,2,2-trifluoroethyl)-1H-pyrazol-4-yl][1,2,4]triazolo[1,5-a]pyridin-2-amine]?
IC50 (DLK): 1.4 nM; IC50 (LZK): 4.9 nM

With `CC(C)C(c1ccc(C(F)F)nc1)n1cc(-c2cc(-c3ccc(C4CC4)nc3)n3nc(N)nc3c2)cn1` (single isomer, unassigned) [II-54, 5-(6-Cyclopropylpyridin-3-yl)-7-(1-{1-[6-(difluoromethyl)pyridin-3-yl]-2-methylpropyl}-1H-pyrazol-4-yl)[1,2,4]triazolo[1,5-a]pyridin-2-amine] as the compound, how does the IC50 (DLK) read?
The IC50 was 4 nM.

What about the IC50 (LZK) of the same compound?
Its IC50 is 8.9 nM.

What does the source list for `CCC(c1ccc(C(F)(F)F)nc1)n1cc(-c2cc(-c3ccc(C(F)(F)F)nc3)c3nc(N)nn3c2)cn1` (racemic) [II-37, 8-[6-(Trifluoromethyl)pyridin-3-yl]-6-(1-{1-[6-(trifluoromethyl)pyridin-3-yl]propyl}-1H-pyrazol-4-yl)[1,2,4]triazolo[1,5-a]pyridin-2-amine]?
IC50 (DLK): 46 nM; IC50 (LZK): 74 nM

`CS(=O)(=O)c1cccc(-c2cc(-c3cnn(C(c4ccc(C(F)(F)F)nc4)C4CCOCC4)c3)cn3nc(N)nc23)c1` (racemic) [II-13, 8-[3-(Methylsulfonyl)phenyl]-6-(1-{tetrahydro-2H-pyran-4-yl[6-(trifluoromethyl)pyridin-3-yl]methyl}-1H-pyrazol-4-yl)[1,2,4]triazolo[1,5-a]pyridin-2-amine] was tested. Which IC50 (DLK) did it give?
The IC50 was 0.7 nM.

And the IC50 (LZK)?
The IC50 was 1.8 nM.
